Measurements taken from patent publication US20210060060A1, “COMPOSITIONS AND METHODS FOR THE TREATMENT OF LUNG EMPHYSEMA AND OTHER FORMS OF COPD” (Emphysema Solutions BV, priority 2018, published 2021).
Where two headings read alike, the source gives them in different places.

Legend:
[1] = test system: pulmonary rat fibroblasts
From the text: (§1) Cell cultures with pulmonary rat fibroblasts. • 7.
(§2) We first measured copper levels in the fibroblast medium.

[2] = test system: porcine pancreatic elastase (PPE)-induced emphysema; assay: Porcine pancreatic elastase (PPE)-induced emphysema model in mice
Procedure: Methods: In order to assess the effects of copper sulfate plus heparin on both elastin and collagen metabolism in vivo, we used a porcine pancreatic elastase (PPE)-induced emphysema model. Study was conducted in male BALB/c mice aged 7 weeks with a starting body weight of about 25 g. During the study period, all mice were housed in a conventional animal house with a 12/12 h light-dark cycle in filter-top cages and supplied with pelleted food and water ad libitum. 1.5 U porcine pancreatic elastase in 25 μL saline was intratracheally administered on day 1 under light anesthesia. […] On day 35, mice were anesthetized intraperitoneally with a mixture of xylazine (8.5 mg/kg) and ketamine (130 mg/kg), they were tracheotomized and placed in a whole-body plethysmograph to assess lung function. After lung function measurements, mice were euthanized by an intracardiac administration of pentobarbital. The left lung will be snap-frozen in liquid nitrogen and stored at −80° C. for subsequent gene expression studies where ELN, LOX and LOXL1 were measured. The right lung was fixed in 6% paraformaldehyde at a constant hydrostatic pressure of 25 cm fluid column for 24 h. After dehydration and embedding in paraffin, sagittal sections will be stained with various stains and used for histological analyses to measure airspace enlargement (mean linear intercept); and subsequently this lung was used for measuring concentrations of both DES and insoluble collagen. Brains were taken out to measure copper concentrations.

[3] = test system: pulmonary rat fibroblasts; assay: Fibroblast cell cultures: vitamin K or magnesium sulfate on top of copper sulfate (6c); type: cell-based; conditions: added to copper sulfate (+8*initial copper concentration in medium); for accumulation of collagen: compared to copper sulfate monotherapy
From the text: as §1, §2

rats' lungs = conditions: copper repletion after copper-deficient diet, ref. [15]; cited from earlier work
copper-deficient chicks = conditions: copper repletion in copper-deficient chicks, ref. [7]; cited from earlier work
[4] = fibroblasts grown 21 days, copper sulfate added +0.5 to +32*initial copper concentration in medium
[5] = intratracheal on day 1, 8, 15, 22 and 29, day 35, compared to placebo

Molecule	DES accumulation [3]	ELN gene expression [3]	LOX gene expression [3]	LOXL1 gene expression [3]	insoluble elastin levels [3]	tropo-elastin levels [3]	accumulation of collagen [3]	other results
O=S(=O)([O-])[O-].[Cu+2] [copper sulfate]								copper concentration at which the dose response curve with regard to DES levels topped off ([1]; added on top of the baseline copper (+)): ~8 *initial copper concentration in the fibroblast medium; DES levels [1, 4]: increased; ELN gene expression [1, 4]: did not have any effect; LOX activity [1, 4]: increased; LOX gene expression [1, 4]: increased; LOXL1 gene expression [1, 4]: increased; accumulation of collagen in the lungs ([2]; conclusion of the mouse study): induced accumulation and maturation of collagen fibers; elastin repair process / repair of damaged elastin fibers ([2]; conclusion of the mouse study): very effectively stimulated; DES levels in lung tissue [2, 5]: higher; Mean linear intercept [2, 5]: lower; hydroxyproline levels in lung [2, 5]: elevated; hyperinflation in the lung function tests (total lung capacity) ([2]; intratracheal on day 1, 8, 15, 22 and 29, measured day 35, compared to placebo): More hyperinflation was present in the lung function tests of mice from the placebo group
CC(C)=CCC/C(C)=C/CC/C(C)=C/CC/C(C)=C/CC1=C(C)C(=O)c2ccccc2C1=O [vitamin K2]	additional stimulating effect	no stimulating effect	no stimulating effect	no stimulating effect	additional stimulating effect	no stimulating effect	no additional stimulating effect	
O=S(=O)([O-])[O-].[Mg+2] [magnesium sulfate]	additional stimulating effect	no stimulating effect	no stimulating effect	no stimulating effect		no stimulating effect	no additional stimulating effect	
CC1=C(C/C=C(\C)CCC[C@H](C)CCC[C@H](C)CCCC(C)C)C(=O)c2ccccc2C1=O [vitamin K1]	additional stimulating effect	no stimulating effect	no stimulating effect	no stimulating effect	additional stimulating effect	no stimulating effect	no additional stimulating effect	
heparin								effect on systemic coagulation ([2]; mouse, in vivo): did not have any effect
[Cu] [copper]								ultrastructure of pulmonary elastin (rats' lungs): restored the ultrastructure of pulmonary elastin to near normal; deposition of protease-resistant elastin fibers (copper-deficient chicks): near normal values; effect on cerebral copper concentrations ([2]; intratracheally administered, mice): no effect
